Measured values reported in patent US12157746B2, “Tetrahydro-1H-pyrazino[2,1-a]isoindolylquinoline compounds for the treatment of autoimmune disease” (F. HOFFMANN-LA ROCHE AG, priority 2018, dated 2024).

The compounds below were run against T1, human TLR7 (Homo sapiens, UniProt Q9NYK1) (assay: HEK293-Blue-hTLR-7 cells assay). Conditions: HEK293-Blue-hTLR7 cells, R848 stimulation, 20 hrs, SEAP reporter; read-out: HEK/hTLR7 IC50.
T1 sequence (Q9NYK1 27-1049): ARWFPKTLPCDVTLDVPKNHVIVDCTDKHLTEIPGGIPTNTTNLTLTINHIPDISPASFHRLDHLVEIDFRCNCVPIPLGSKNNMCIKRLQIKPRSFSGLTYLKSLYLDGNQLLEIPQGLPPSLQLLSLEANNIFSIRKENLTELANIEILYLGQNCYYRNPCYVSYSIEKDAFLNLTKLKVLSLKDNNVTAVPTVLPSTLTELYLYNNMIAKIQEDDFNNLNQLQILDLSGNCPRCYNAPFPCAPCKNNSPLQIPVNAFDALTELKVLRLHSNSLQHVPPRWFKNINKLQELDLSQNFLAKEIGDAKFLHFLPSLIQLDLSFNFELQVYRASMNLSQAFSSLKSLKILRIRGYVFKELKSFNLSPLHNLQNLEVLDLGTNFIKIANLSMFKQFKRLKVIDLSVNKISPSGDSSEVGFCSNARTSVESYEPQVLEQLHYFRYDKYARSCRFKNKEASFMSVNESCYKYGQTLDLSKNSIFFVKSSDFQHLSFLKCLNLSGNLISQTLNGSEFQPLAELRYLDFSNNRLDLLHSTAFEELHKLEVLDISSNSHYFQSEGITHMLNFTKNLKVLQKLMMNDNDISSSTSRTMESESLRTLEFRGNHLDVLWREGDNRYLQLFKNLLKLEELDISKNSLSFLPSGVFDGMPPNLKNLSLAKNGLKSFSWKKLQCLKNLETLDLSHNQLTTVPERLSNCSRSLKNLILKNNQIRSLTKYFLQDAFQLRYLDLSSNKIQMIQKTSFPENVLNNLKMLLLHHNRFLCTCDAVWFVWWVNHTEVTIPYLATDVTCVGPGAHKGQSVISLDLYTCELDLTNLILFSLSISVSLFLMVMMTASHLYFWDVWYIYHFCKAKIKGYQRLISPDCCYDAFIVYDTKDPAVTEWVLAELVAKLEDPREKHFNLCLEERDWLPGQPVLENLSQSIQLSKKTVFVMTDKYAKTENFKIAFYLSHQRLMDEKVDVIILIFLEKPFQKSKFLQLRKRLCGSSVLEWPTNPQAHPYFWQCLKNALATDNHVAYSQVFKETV
Assay type: cell-based
Outline: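 HEK293-Blue-hTLR7 cells (NF-κB/AP-1-driven SEAP reporter) incubated with serially diluted compound (1% DMSO final) and R848 agonist for 20 h at 37 °C. Supernatant SEAP measured with QUANTI-Blue (2 h, 37 °C) by absorbance at 620-655 nm; antagonism seen as reduced reporter.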
In the case of `C[C@@H]1CN(c2ccc(C(F)(F)F)c3nccnc23)C[C@@H]2c3ccc(N[C@H]4CNC[C@H]4F)cc3CN12` [Example 77, (4R,10bS)—N-[(3S,4R)-4-fluoropyrrolidin-3-yl]-4-methyl-2-[8-(trifluoromethyl)quinoxalin-5-yl]-3,4,6,10b-tetrahydro-1H-pyrazino[2,1-a]isoindol-8-amine], the IC50 is reported as 12.6 nM.
`C[C@@H]1CN(c2ccc(C#N)c3ncsc23)C[C@@H]2c3ccc(N[C@H]4CNC[C@H]4F)cc3CN12` [Example 78, 7-[(4R,10bS)-8-[[(3S,4R)-4-fluoropyrrolidin-3-yl]amino]-4-methyl-3,4,6,10b-tetrahydro-1H-pyrazino[2,1-a]isoindol-2-yl]-1,3-benzothiazole-4-carbonitrile] showed an IC50 of 1.2 nM.
`C[C@@H]1CN(c2ccc(Cl)c3ncccc23)C[C@@H]2c3ccc(N[C@H]4CNC[C@H]4F)cc3CN12` [Example 79, (4R,10b)-2-(8-chloro-5-quinolyl)-N-[(3S,4R)-4-fluoropyrrolidin-3-yl]-4-methyl-3,4,6,10b-tetrahydro-1H-pyrazino[2,1-a]isoindol-8-amine] gave an IC50 of 7.6 nM.
In the case of `C[C@@H]1CN(c2ccc(C#N)c3ncccc23)C[C@@H]2c3cccc(NCCN4CC[C@H](O)C4)c3CN12` [Example 80, 5-[(4R,10bS)-7-[2-[(3S)-3-hydroxypyrrolidin-1-yl]ethylamino]-4-methyl-3,4,6,10b-tetrahydro-1H-pyrazino[2,1-a]isoindol-2-yl]quinoline-8-carbonitrile], the IC50 is reported as 17.9 nM.
With `C[C@@H]1CN(c2ccc(C#N)c3ncccc23)C[C@@H]2c3cccc(N[C@H]4CNC[C@H]4F)c3CN12` [Example 81, 5-[(4R,10bS)-7-[[(3S,4R)-4-fluoropyrrolidin-3-yl]amino]-4-methyl-3,4,6,10b-tetrahydro-1H-pyrazino[2,1-a]isoindol-2-yl]quinoline-8-carbonitrile] the IC50 was 7.4 nM.
With `C[C@@H]1CN(c2ccc(C#N)c3ncccc23)C[C@@H]2c3cc(F)c(N4C[C@H](N)[C@@](C)(O)C4)cc3CN12` [Example 83, 5-[(4R,10bS)-8-[(3S,4S)-4-amino-3-hydroxy-3-methyl-pyrrolidin-1-yl]-9-fluoro-4-methyl-3,4,6,10b-tetrahydro-1H-pyrazino[2,1-a]isoindol-2-yl]quinoline-8-carbonitrile] the IC50 was 2.7 nM.
Work on `C[C@@H]1CN(c2ccc(C#N)c3ncccc23)C[C@@H]2c3cc(F)c(N4CC5(CNC5)C4)cc3CN12` [Example 84, 5-[(4R,10bS)-8-(2,6-diazaspiro[3.3]heptan-2-yl)-9-fluoro-4-methyl-3,4,6,10b-tetrahydro-1H-pyrazino[2,1-a]isoindol-2-yl]quinoline-8-carbonitrile] yielded an IC50 of 2.6 nM.
`C[C@@H]1CN(c2ccc(C#N)c3ncccc23)C[C@@H]2c3cc(F)c(N4CC5CNCC(C4)O5)cc3CN12` [Example 85, 5-[(4R,10bS)-9-fluoro-4-methyl-8-(9-oxa-3,7-diazabicyclo[3.3.1]nonan-3-yl)-3,4,6,10b-tetrahydro-1H-pyrazino[2,1-a]isoindol-2-yl]quinoline-8-carbonitrile] showed an IC50 of 6.9 nM.
Work on `C[C@@H]1CN(c2ccc(C#N)c3ncccc23)C[C@@H]2c3ccc(C(=O)N4CCC(C)(N)CC4)cc3CN12` [Example 88, 5-[(4R,10bS)-8-(4-amino-4-methyl-piperidine-1-carbonyl)-4-methyl-3,4,6,10b-tetrahydro-1H-pyrazino[2,1-a]isoindol-2-yl]quinoline-8-carbonitrile] yielded an IC50 of 3.7 nM.
For `[2H]c1ccc2c(N3C[C@@H](C)N4Cc5cc(N6CC7(CNCCO7)C6)ccc5[C@H]4C3)ccc(C#N)c2n1` [Example 90, 5-[(4R,10bS)-4-methyl-8-(5-oxa-2,8-diazaspiro[3.5]nonan-2-yl)-3,4,6,10b-tetrahydro-1H-pyrazino[2,1-a]isoindol-2-yl]-2-deuterio-quinoline-8-carbonitrile], the IC50 was 2.9 nM.
